Like-named read-outs stand apart in the source and are kept apart here.
Key:
[1] = molecular target: T1, baculovirus-expressed ALK (Homo sapiens, UniProt Q9UM73); experiment: ALK Kinase Assay (ELISA-type, time-resolved fluorescence); type: biochemical
T1 construct: host or cells: baculovirus expression system
Summary of the method: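 Wells were coated with phospholipase C-γ at 10 μg/mL in Tris-buffered saline. Adding 30 ng/ml enzyme started the reaction, which ran at 37° C for 15 minutes before Eu-N1 PT66 antibody detection. Percent inhibition versus log10 concentration gave IC50 by variable-slope fit.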

[2] = molecular target: T2, c-Met (cytoplasmic domain) (Homo sapiens, UniProt P08581); experiment: c-Met Kinase Assay (same methods as for ALK, with modifications); type: biochemical
T2 construct: 10 ng/mL c-Met (cytoplasmic domain, Invitrogen Corporation #PV3143); purchased Invitrogen Corporation PV3143
T2 sequence (P08581 956-1390 limits assumed): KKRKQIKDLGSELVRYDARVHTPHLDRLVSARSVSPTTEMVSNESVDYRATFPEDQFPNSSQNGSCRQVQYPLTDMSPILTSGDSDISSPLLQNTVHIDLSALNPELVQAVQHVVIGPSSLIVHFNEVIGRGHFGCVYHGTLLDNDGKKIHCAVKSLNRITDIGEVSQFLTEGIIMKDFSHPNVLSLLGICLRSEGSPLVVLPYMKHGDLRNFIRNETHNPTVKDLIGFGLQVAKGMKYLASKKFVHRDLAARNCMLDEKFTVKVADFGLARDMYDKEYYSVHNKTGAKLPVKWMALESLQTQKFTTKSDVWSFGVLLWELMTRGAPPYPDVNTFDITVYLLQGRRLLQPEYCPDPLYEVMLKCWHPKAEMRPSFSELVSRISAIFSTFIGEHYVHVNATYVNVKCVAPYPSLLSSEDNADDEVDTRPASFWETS
Summary of the method: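 Steps: coat wells with PLC-γ (10 μg/mL, Tris-buffered saline); add 10 ng/mL c-Met cytoplasmic domain to initiate; incubate 15 min, 37° C; detect phosphoproduct via Eu-N1 PT66 antibody.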

[3] = ALK kinase inhibition, 1 μM ATP (Km level), read-out: ALK Activity
[4] = c-Met kinase inhibition, 1 μM ATP (Km level), read-out: cMet Activity
[5] = 1 μM ATP (Km level), 30 ng/ml ALK, 37° C., 15 minutes, read-out: ALK Activity (ALK kinase inhibition, IC50 class)
[6] = 1 μM ATP (Km level), 10 ng/mL c-Met, read-out: cMet Activity (c-Met kinase inhibition, IC50 class)
[7] = 1 μM ATP (Km level), read-out: ALK Activity (ALK Kinase Inhibition, IC50)
[8] = 1 μM ATP (Km level), read-out: cMet Activity (c-Met Kinase Inhibition, IC50)
[9] = ALK kinase inhibition, 1 μM ATP, read-out: ALK Activity
[10] = c-Met kinase inhibition, 1 μM ATP, read-out: cMet Activity

T1 sequence (Q9UM73 19-1620): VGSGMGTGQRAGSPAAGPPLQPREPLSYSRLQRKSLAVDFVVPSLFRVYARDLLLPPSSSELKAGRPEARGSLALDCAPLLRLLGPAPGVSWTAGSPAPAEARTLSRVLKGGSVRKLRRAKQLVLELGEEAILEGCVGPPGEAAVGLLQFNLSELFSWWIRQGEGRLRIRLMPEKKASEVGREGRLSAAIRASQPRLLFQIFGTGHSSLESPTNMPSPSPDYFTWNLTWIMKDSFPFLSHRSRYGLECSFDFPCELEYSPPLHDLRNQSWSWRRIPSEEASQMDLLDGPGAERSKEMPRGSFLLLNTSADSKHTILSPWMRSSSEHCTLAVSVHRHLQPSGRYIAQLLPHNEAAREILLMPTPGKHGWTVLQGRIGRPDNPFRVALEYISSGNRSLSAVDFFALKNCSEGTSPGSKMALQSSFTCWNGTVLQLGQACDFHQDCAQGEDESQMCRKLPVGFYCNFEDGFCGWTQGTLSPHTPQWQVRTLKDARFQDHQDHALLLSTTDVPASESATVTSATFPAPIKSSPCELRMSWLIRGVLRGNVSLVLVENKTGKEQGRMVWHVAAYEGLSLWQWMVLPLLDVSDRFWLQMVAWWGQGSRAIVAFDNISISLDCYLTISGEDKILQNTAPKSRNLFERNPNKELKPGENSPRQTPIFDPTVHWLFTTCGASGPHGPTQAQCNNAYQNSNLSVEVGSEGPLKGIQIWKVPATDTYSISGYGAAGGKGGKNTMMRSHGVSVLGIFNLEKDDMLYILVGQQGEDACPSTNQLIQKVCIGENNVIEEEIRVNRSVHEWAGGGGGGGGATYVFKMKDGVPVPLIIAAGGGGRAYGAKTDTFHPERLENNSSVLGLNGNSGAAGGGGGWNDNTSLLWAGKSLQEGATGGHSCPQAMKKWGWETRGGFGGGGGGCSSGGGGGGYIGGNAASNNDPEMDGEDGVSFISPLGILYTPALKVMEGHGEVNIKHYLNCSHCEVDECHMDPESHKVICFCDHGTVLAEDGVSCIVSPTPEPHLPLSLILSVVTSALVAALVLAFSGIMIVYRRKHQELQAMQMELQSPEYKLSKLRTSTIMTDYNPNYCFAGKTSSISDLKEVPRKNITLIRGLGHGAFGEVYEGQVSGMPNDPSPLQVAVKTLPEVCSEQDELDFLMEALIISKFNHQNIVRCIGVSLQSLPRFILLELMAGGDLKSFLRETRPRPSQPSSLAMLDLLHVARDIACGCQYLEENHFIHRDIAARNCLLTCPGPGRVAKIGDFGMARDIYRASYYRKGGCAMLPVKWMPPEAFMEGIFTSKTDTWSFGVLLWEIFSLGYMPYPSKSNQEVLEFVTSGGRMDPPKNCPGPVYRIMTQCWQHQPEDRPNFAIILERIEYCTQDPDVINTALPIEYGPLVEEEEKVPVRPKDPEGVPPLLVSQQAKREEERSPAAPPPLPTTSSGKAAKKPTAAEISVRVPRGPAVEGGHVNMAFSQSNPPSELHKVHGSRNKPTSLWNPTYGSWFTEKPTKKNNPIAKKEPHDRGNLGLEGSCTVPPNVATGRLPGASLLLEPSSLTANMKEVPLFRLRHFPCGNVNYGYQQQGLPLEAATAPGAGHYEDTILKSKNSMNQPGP

For `CNC(=O)c1ccccc1Nc1nc(Nc2ccc3c(c2)CCCC(=O)N3)ncc1Cl` [Example 2, 2-[5-Chloro-2-(2-oxo-2,3,4,5-tetrahydro-1H-benzo[b]azepin-7-ylamino)-pyrimidin-4-ylamino]-N-methyl-benzamide], the IC50 [1, 3] was < 100 nM and the IC50 [2, 4] was < 100 nM.

In the case of `CN1C(=O)CCCc2cc(Nc3ncc(Cl)c(Nc4ccc(N5CCOCC5)cc4C(N)=O)n3)ccc21` [Example 355, 2-[5-Chloro-2-(1-methyl-2-oxo-2,3,4,5-tetrahydro-1H-benzo[b]azepin-7-ylamino)pyrimidin-4-ylamino]-5-morpholin-4-yl-benzamide], the IC50 [1, 3] is reported as < 100 nM and the IC50 [2, 4] is reported as 100 to 1000 nM.

`COCCN1CCc2ccc(Nc3ncc(Cl)c(Nc4ccccc4C(=O)NCCCCN(C)C)n3)cc2CC1` [Example 1400, {5-Chloro-2-[3-(2-methoxy-ethyl)-2,3,4,5-tetrahydro-1H-benzo[d]azepin-7-ylamino]-pyrimidin-4-ylamino}-N-(4-dimethylamino-butyl)-benzamide] gave an IC50 [1, 5] of 100 to 1000 nM and an IC50 [2, 6] of 1000 to 10000 nM.

For `C#CCNC(=O)c1cccc(F)c1Nc1nc(Nc2ccc3c(c2)NC(=O)C(NC(=O)N2CCCC2)CC3(C)C)ncc1Cl` (stereo not shown) [Example 1296, Pyrrolidine-1-carboxylic acid {8-[5-chloro-4-(2-fluoro-6-prop-2-ynylcarbamoyl-phenylamino)-pyrimidin-2-ylamino]-5,5-dimethyl-2-oxo-2,3,4,5-tetrahydro-1H-1-benzazepin-3-yl}-amide], the IC50 [1, 5] was 100 to 1000 nM and the IC50 [2, 6] was < 100 nM.

In the case of `CNC(=O)c1cc(N(C)C)ccc1Nc1nc(Nc2ccc3c(c2)CCN(CCOC)CC3)ncc1Cl` [Example 1413, 2-{5-Chloro-2-[3-(2-methoxy-ethyl)-2,3,4,5-tetrahydro-1H-benzo[d]azepin-7-ylamino]-pyrimidin-4-ylamino}-5-dimethylamino-N-methyl-benzamide], the IC50 [1, 5] is reported as < 100 nM and the IC50 [2, 6] is reported as 100 to 1000 nM.

With `CNC(=O)c1cc(-c2cnn(C)c2)cc(F)c1Nc1nc(Nc2ccc3c(c2)NC(=O)CCC3)ncc1Cl` [Example 1422, 2-[5-Chloro-2-(2-oxo-2,3,4,5-tetrahydro-1H-benzo[b]azepin-8-ylamino)-pyrimidin-4-ylamino]-3-fluoro-N-methyl-5-(1-methyl-1H-pyrazol-4-yl)-benzamide] the IC50 [1, 5] was 100 to 1000 nM and the IC50 [2, 6] was < 100 nM.

For `CCN1C(=O)CCCc2cc(Nc3ncc(Cl)c(Nc4ccccc4-c4nccn4C)n3)c(OC)cc21` [Example 996, 7-{5-Chloro-4-[2-(1-methyl-1H-imidazol-2-yl)-phenylamino]-pyrimidin-2-ylamino}-1-ethyl-8-methoxy-1,3,4,5-tetrahydro-benzo[b]azepin-2-one], the IC50 [1, 7] was < 100 nM and the IC50 [2, 8] was > 10000 nM.

In the case of `COc1cc2c(cc1Nc1ncc(F)c(Nc3ccc(N4CCN(C)CC4)cc3OC)n1)CCN(CC(=O)N(C)C)CC2` [Example 793, 2-(7-{5-Fluoro-4-[2-methoxy-4-(4-methyl-piperazin-1-yl)-phenylamino]-pyrimidin-2-ylamino}-8-methoxy-1,2,4,5-tetrahydro-benzo[d]azepin-3-yl)-N,N-dimethyl-acetamide], the IC50 [1, 7] is reported as < 100 nM and the IC50 [2, 8] is reported as > 10000 nM.

For `OC1CCc2ccc(Nc3ncc(Cl)c(Nc4ccccc4-n4cccn4)n3)cc2CC1` (stereo not shown) [Example 1035, 2-[5-Chloro-4-(2-pyrazol-1-yl-phenylamino)-pyrimidin-2-ylamino]-6,7,8,9-tetrahydro-5H-benzocyclohepten-7-ol], the IC50 [1, 5] was < 100 nM and the IC50 [2, 6] was 100 to 1000 nM.

`CNC(=O)c1scc(C)c1Nc1nc(Nc2ccc3c(c2)CCC(=O)NC3(C)C)ncc1Cl` [Example 1829] was tested, and the IC50 [1, 9] was 1000 to 10000 nM and the IC50 [2, 10] was < 100 nM.

For `COCCN1CCc2cc(Nc3ncc(Cl)c(N[C@H]4[C@@H](C(N)=O)[C@@H]5C=C[C@H]4C5)n3)c(OC)cc2CC1` [Example 1315, (1S,2S,3R,4R)-3-{5-Chloro-2-[8-methoxy-3-(2-methoxy-ethyl)-2,3,4,5-tetrahydro-1H-benzo[d]azepin-7-ylamino]-pyrimidin-4-ylamino}-bicyclo[2.2.1]hept-5-ene-2-carboxylic acid amide], the IC50 [1, 5] was < 100 nM and the IC50 [2, 6] was > 10000 nM.

For `CCN1C(=O)CCCc2cc(Nc3ncc(Cl)c(Nc4ccccc4-n4cccn4)n3)c(OC)cc21` [Example 1317, 7-[5-Chloro-4-(2-pyrazol-1-yl-phenylamino)-pyrimidin-2-ylamino]-1-ethyl-8-methoxy-1,3,4,5-tetrahydro-benzo[b]azepin-2-one], the IC50 [1, 5] was < 100 nM and the IC50 [2, 6] was > 10000 nM.

`COCCN1CCc2ccc(Nc3ncc(Cl)c(Nc4ccccc4C(=O)NCCCN(C)C)n3)cc2CC1` [Example 1401, 2-{5-Chloro-2-[3-(2-methoxy-ethyl)-2,3,4,5-tetrahydro-1H-benzo[d]azepin-7-ylamino]-pyrimidin-4-ylamino}-N-(3-dimethylamino-propyl)-benzamide] was tested, and the IC50 [1, 5] was 100 to 1000 nM and the IC50 [2, 6] was 100 to 1000 nM.

For `CCCNC(=O)c1ccccc1Nc1nc(Nc2ccc3c(c2)CCCC(=O)N3)ncc1Cl` [Example 1024, 2-[5-Chloro-2-(2-oxo-2,3,4,5-tetrahydro-1H-benzo[b]azepin-7-ylamino)-pyrimidin-4-ylamino]-N-propyl-benzamide], the IC50 [1, 5] was < 100 nM and the IC50 [2, 6] was < 100 nM.

With “5-Chloro-N*2*,N*4*-bis-(3-ethyl-2,3,4,5-tetrahydro-1H-benzo[d]azepin-7-yl)-pyridine-2,4-diamine [Example 199]” the IC50 [1, 3] was < 100 nM and the IC50 [2, 4] was 1000 to 10000 nM.

For `COc1cc2c(cc1Nc1ncc(Cl)c(N[C@@H]3CCCC[C@H]3NS(C)(=O)=O)n1)NC(=O)CNC2` [Example 1655, N-{(1R,2R)-2-[5-Chloro-2-(7-methoxy-2-oxo-2,3,4,5-tetrahydro-1H-benzo[e][1,4]diazepin-8-ylamino)-pyrimidin-4-ylamino]-cyclohexyl}-methanesulfonamide], the IC50 [1, 9] was < 100 nM and the IC50 [2, 10] was > 10000 nM.

With `CCN1CCN(CC)c2cc(Nc3ncc(Cl)c(Nc4ccccc4NS(C)(=O)=O)n3)c(Cl)cc2C1` [Example 431, N-{2-[5-Chloro-2-(7-chloro-1,4-diethyl-2,3,4,5-tetrahydro-1H-benzo[e][1,4]diazepin-8-ylamino)-pyrimidin-4-ylamino]-phenyl}-methanesulfonamide] the IC50 [1, 3] was < 100 nM and the IC50 [2, 4] was 1000 to 10000 nM.

With `CNC(=O)c1ccccc1Nc1nc(Nc2cc3c(cc2OC)NC(=O)CCC3(C)C)ncc1Cl` [Example 1671, 2-[5-Chloro-2-(8-methoxy-5,5-dimethyl-2-oxo-2,3,4,5-tetrahydro-1H-benzo[b]azepin-7-ylamino)-pyrimidin-4-ylamino]-N-methyl-benzamide] the IC50 [1, 9] was < 100 nM and the IC50 [2, 10] was 1000 to 10000 nM.

`CC1(C)CCCOc2c(Nc3ncc(Cl)c(Nc4ccccc4C(=O)NCCC#N)n3)cccc21` [Example 877, 2-[5-Chloro-2-(5,5-dimethyl-2,3,4,5-tetrahydro-benzo[b]oxepin-9-ylamino)-pyrimidin-4-ylamino]-N-(2-cyano-ethyl)-benzamide] was tested, and the IC50 [1, 7] was 100 to 1000 nM and the IC50 [2, 8] was > 10000 nM.

Work on `CN1C(=O)CCCc2cc(Nc3ncc(Cl)c(Nc4ccc5[nH]c(C(F)(F)F)nc5c4)n3)ccc21` [Example 1016, 7-[5-Chloro-4-(2-trifluoromethyl-1H-benzoimidazol-5-ylamino)-pyrimidin-2-ylamino]-1-methyl-1,3,4,5-tetrahydro-benzo[b]azepin-2-one] yielded an IC50 [1, 5] of 100 to 1000 nM and an IC50 [2, 6] of 1000 to 10000 nM.

In the case of `CCNC(=O)c1cccc(F)c1Nc1nc(Nc2ccc3c(c2)C(C)(C)CCC(=O)N3)ncc1Cl` [Example 1365, 2-[5-Chloro-2-(5,5-dimethyl-2-oxo-2,3,4,5-tetrahydro-1H-benzo[b]azepin-7-ylamino)-pyrimidin-4-ylamino]-N-ethyl-3-fluoro-benzamide], the IC50 [1, 5] is reported as < 100 nM and the IC50 [2, 6] is reported as < 100 nM.

`CNS(=O)(=O)c1ccccc1Nc1nc(Nc2ccc3c(c2)CCN(S(C)(=O)=O)CC3)ncc1Cl` [Example 43, 2-[5-Chloro-2-(3-methanesulfonyl-2,3,4,5-tetrahydro-1H-benzo[d]azepin-7-ylamino)-pyrimidin-4-ylamino]-N-methyl-benzenesulfonamide] was tested, and the IC50 [1, 3] was < 100 nM and the IC50 [2, 4] was < 100 nM.

`CCNC(=O)c1ccccc1Nc1nc(Nc2ccc3c(c2)C(C)(C)CCC(=O)N3)ncc1Cl` [Example 339] was tested, and the IC50 [1, 3] was < 100 nM and the IC50 [2, 4] was < 100 nM.

For `COCCN1CCc2ccc(Nc3ncc(Cl)c(Nc4ccccc4-c4nc(C(F)(F)F)c[nH]4)n3)cc2CC1` [Example 1011, 5-Chloro-N*2*-[3-(2-methoxy-ethyl)-2,3,4,5-tetrahydro-1H-benzo[d]azepin-7-yl]-N*4*-[2-(4-trifluoromethyl-1H-imidazol-2-yl)-phenyl]-pyrimidine-2,4-diamine], the IC50 [1, 7] was < 100 nM and the IC50 [2, 8] was 100 to 1000 nM.

With `COc1cc2c(cc1Nc1ncc(Cl)c(Nc3ccc(N(C)C)cc3OC)n1)CCN(CC(=O)N(C)C)CC2` [Example 1166, 2-{7-[5-Chloro-4-(4-dimethylamino-2-methoxy-phenylamino)-pyrimidin-2-ylamino]-8-methoxy-1,2,4,5-tetrahydro-benzo[d]azepin-3-yl}-N,N-dimethyl-acetamide] the IC50 [1, 5] was < 100 nM and the IC50 [2, 6] was > 10000 nM.

`CCN1CC(=O)N(C)c2cc(Nc3ncc(Cl)c(N[C@H]4[C@@H](C(N)=O)[C@@H]5C=C[C@H]4C5)n3)c(OC)cc2C1` [Example 741] was tested, and the IC50 [1, 7] was < 100 nM and the IC50 [2, 8] was > 10000 nM.
